In series [1] the target is T1, Tyrosine-protein phosphatase non-receptor type 1 (Homo sapiens, UniProt P18031).
T1 sequence (P18031 whole entry): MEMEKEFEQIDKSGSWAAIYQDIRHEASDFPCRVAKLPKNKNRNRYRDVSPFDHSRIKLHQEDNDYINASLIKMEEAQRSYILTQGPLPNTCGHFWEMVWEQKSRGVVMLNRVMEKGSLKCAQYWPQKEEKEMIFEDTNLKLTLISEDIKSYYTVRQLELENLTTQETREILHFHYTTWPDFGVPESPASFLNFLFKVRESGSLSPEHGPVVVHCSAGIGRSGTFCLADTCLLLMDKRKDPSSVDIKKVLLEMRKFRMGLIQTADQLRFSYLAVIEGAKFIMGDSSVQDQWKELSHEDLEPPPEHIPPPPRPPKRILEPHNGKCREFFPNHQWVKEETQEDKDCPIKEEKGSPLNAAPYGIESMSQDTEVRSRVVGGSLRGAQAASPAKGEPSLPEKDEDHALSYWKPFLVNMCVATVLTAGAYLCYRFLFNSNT
The experiment in a line: Inhibition of PTP1B (unknown origin) assessed as reduction in nitrophenol production using pNPP as substrate incubated for 30 mins by EnVisionMultilable plate reader based method.

Series [2] deals with T2, Tyrosine-protein phosphatase non-receptor type 2 (Homo sapiens, UniProt P17706).
T2 sequence (P17706 whole entry): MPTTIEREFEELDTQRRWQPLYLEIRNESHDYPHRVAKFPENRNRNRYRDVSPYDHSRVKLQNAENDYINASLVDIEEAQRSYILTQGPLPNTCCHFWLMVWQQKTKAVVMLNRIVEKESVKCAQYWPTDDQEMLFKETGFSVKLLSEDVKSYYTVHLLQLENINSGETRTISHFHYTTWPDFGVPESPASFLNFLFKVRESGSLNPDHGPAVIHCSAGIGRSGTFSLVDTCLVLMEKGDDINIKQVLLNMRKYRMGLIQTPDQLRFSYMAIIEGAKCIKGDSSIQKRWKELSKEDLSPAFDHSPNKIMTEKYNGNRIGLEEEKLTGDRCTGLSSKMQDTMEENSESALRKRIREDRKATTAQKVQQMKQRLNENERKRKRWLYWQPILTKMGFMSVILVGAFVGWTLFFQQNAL
Put plainly: Inhibition of TCPTP (unknown origin) assessed as reduction in nitrophenol production using pNPP as substrate incubated for 30 mins by EnVisionMultilable plate reader based method.

The species named for series [3] is Homo sapiens. The experiment in a line: Selectivity ratio of IC50 for TCPTP (unknown origin) using pNPP as substrate to IC50 for PTP1B (unknown origin) using pNPP as substrate.
The species named for series [4] is Homo sapiens. The experiment in a line: Selectivity ratio of IC50 for TCPTP (unknown origin) to IC50 for human GST-tagged PTP1B.
Series [5] concerns the target T3, Tyrosine-protein phosphatase non-receptor type 1 (Homo sapiens) (UniProt P18031).
T3 sequence (whole entry): T1 sequence (P18031 whole entry)
Put plainly: Competitive inhibition of PTP1B (unknown origin) assessed as change in V max at 0 to 9.6 uM using varying levels of pNPP as substrate by Lineweaver-Burk plot analysis.

Series [6] is described as follows: Cytotoxicity against human L02 cells assessed as cell viability at 1 to 250 uM after 72 hrs by WST1 assay. Type of series: cell-based. The conditions noted are these: read-out: Activity.
The target of series [7] is T3, Tyrosine-protein phosphatase non-receptor type 1 (Homo sapiens). The experiment in a line: Competitive inhibition of PTP1B (unknown origin) assessed as increase in Km at 0 to 9.6 uM using varying levels of pNPP as substrate by Lineweaver-Burk plot analysis.
Series [8] has as its system L02. The experiment in a line: Cytotoxicity against human L02 cells assessed as reduction in cell viability after 72 hrs by WST1 assay. Type of series: cell-based. As to conditions: L02, 72 h. Background: Tetrazolium dyes change colour on reduction, which living cells bring about.
Series [9] has as its target T3, Tyrosine-protein phosphatase non-receptor type 1 (Homo sapiens). Put plainly: Competitive inhibition of PTP1B (unknown origin) assessed as change in V max at 0 to 28.8 uM using varying levels of pNPP as substrate by Lineweaver-Burk plot analysis.
Series [10] has the same target. Put plainly: Competitive inhibition of PTP1B (unknown origin) assessed as increase in Km at 0 to 28.8 uM using varying levels of pNPP as substrate by Lineweaver-Burk plot analysis.
Series [11] concerns the target T1, Tyrosine-protein phosphatase non-receptor type 1. The experiment in a line: Inhibition of human FLAG-tagged PTP1B catalytic domain (1 to 298) expressed in Escherichia coli using fluorescein diphosphate as substrate by fluorescence based method.
For series [12], the target named is T2, Tyrosine-protein phosphatase non-receptor type 2. Put plainly: Inhibition of human FLAG-tagged TCPTP (1 to 296) expressed in Escherichia coli using fluorescein diphosphate as substrate by fluorescence based method.

Calls of active or inactive are those of the source. The calls are words filed in the database; no cut-off is given here. Bounds are passed on as bounds.

For the molecule `CCOC(=O)C1=C(C(C)C)NC(=S)N[C@H]1/C=C/c1ccc(C(F)(F)F)cc1`, the IC50 – broadly, the point on the concentration scale where inhibition reaches its midpoint – was 10.3 µM in series [1] and above 100 µM in series [2]. For the same molecule, in [3], the Ratio IC50 is above 9.66.

As to `COC(=O)C1=C(C(C)(C)C)NC(=S)N[C@H]1/C=C/c1ccc(C)cc1`, the IC50 in series [1] is 16.3 µM; in series [2], above 100 µM. The Ratio IC50 in series [3] was above 6.13.

As to `CC(C)OCc1cc(O)c(O)c(Br)c1Cc1cc(O)c(O)c(Br)c1Br`, the Ratio IC50 in series [4] is above 50.

As to `COC(=O)C1=C(C(C)C)NC(=S)N[C@H]1/C=C/c1ccc([N+](=O)[O-])cc1`, in series [1], the IC50 is above 50 µM.

As for `COC(=O)C1=C(C(C)(C)C)NC(=S)N[C@H]1/C=C/c1ccc(Cl)cc1`, the IC50 stood at 6.65 µM in [1] and 54.8 µM in series [2]. The Ratio IC50 in series [3] amounted to 8.24.

Regarding `COC(=O)C1=C(C(C)C)NC(=S)N[C@H]1/C=C/c1ccc(Cl)cc1`, the inhibition result in series [5] and in series [7] was “Active” in each case. For the same molecule, the IC50 in series [1] is 7.12 µM; in [2], above 100 µM; in series [8] it was above 250 µM. Also, in series [6], the viability at 72 h, up to 250 µM was above 85%. Further, in series [3], the Ratio IC50 was above 14.

Consider `COC(=O)C1=C(C(C)C)NC(=S)N[C@H]1/C=C/c1ccc(F)cc1`, for which the inhibition entry in [9] and in series [10] was “Active” throughout. Further, the values for the IC50 in [1], in [2] and in series [8] were 3.33 µM, above 100 µM and above 250 µM, respectively. Moreover, in series [6], the viability at 72 h, up to 250 µM is above 85%. The Ratio IC50 in series [3] was above 30.

With `CCOC(=O)C1=C(C(C)C)NC(=S)N[C@H]1/C=C/c1ccc([N+](=O)[O-])cc1`, the values for the IC50 in series [1] and in series [2] were above 50 µM and above 100 µM, respectively.

As to `COC(=O)C1=C(C(C)(C)C)NC(=S)N[C@H]1/C=C/c1ccc(C(F)(F)F)cc1`, the IC50 is 6.31 µM in series [1] and above 100 µM in series [2]. Further, in [3], the Ratio IC50 was above 15.8.

For the molecule `COC(CC(C)C)c1ccc2ccc(-c3ccc(CC(Cc4ccc(C(F)(F)P(=O)(O)O)cc4)(c4ccccc4)n4nnc5ccccc54)cc3)c(P(=O)(O)O)c2n1` (configuration not stated), the IC50 in series [11] was 0.005 µM; in [12], 0.036 µM.

For the molecule `COC(=O)C1=C(C(C)(C)C)NC(=S)N[C@H]1/C=C/c1ccc([N+](=O)[O-])cc1`, the IC50 was 11.4 µM in series [1] and above 100 µM in [2]. The Ratio IC50 in series [3] was above 8.79.

For `CCOC(=O)C1=C(C(C)C)NC(=S)N[C@H]1/C=C/c1ccc(F)cc1`, the half-inhibitory concentration (IC50) in series [1] was above 50 µM.

Turning to `COC(=O)C1=C(C(C)(C)C)NC(=S)N[C@H]1/C=C/c1ccc(Br)cc1`, the IC50 stood at 11 µM in series [1] and 36 µM in series [2]. In series [3], the Ratio IC50 turned out to be 3.28.

Consider `COC(=O)C1=C(C(C)(C)C)NC(=S)N[C@H]1/C=C/c1ccccc1`, for which the IC50 in series [1] was above 50 µM.

For `COC(=O)C1=C(C(C)(C)C)NC(=S)N[C@H]1/C=C/c1ccc(F)cc1`, the IC50 in series [1] was above 50 µM.

With `CCOC(=O)C1=C(C(C)C)NC(=S)N[C@H]1/C=C/c1ccc(OC)cc1`, the IC50 stood at 2.38 µM in series [1] and 40.4 µM in series [2]. Besides, in series [3], the Ratio IC50 is 17.

On to `CCOC(=O)C1=C(C(C)C)NC(=S)N[C@H]1/C=C/c1ccc(Cl)cc1`, for which the IC50 in [1] turned out to be 4.79 µM; in [2] it was 35.8 µM. For the same molecule, the Ratio IC50 in series [3] is 7.47.

Consider `CCOC(=O)C1=C(C(C)C)NC(=S)N[C@H]1/C=C/c1ccc(Br)cc1`, for which the IC50 in series [1] was 11.3 µM; in series [2] it was above 100 µM. Moreover, the Ratio IC50 in series [3] was above 8.85.

Turning to `COC(=O)C1=C(C(C)C)NC(=S)N[C@H]1/C=C/c1ccc(C(F)(F)F)cc1`, the IC50 is 5.49 µM in [1] and above 100 µM in series [2]. Also, the Ratio IC50 in [3] is above 18.2.

Take `COC(=O)C1=C(C(C)(C)C)NC(=S)N[C@H]1/C=C/c1ccc(OC)cc1`: the IC50 is 5.03 µM in series [1] and above 100 µM in [2]. Further, the Ratio IC50 in series [3] is above 19.9.

For the molecule `CC1(C)CC[C@]2(C(=O)O)CC[C@]3(C)C(=CC[C@@H]4[C@@]5(C)CC[C@H](O)C(C)(C)[C@@H]5CC[C@]43C)[C@@H]2C1` [OLEANOLIC_ACID], in series [6], the viability at 72 h, up to 250 µM was below 85%.

On to `COC(=O)C1=C(C(C)C)NC(=S)N[C@H]1/C=C/c1ccccc1`, for which the IC50 is 18.6 µM in series [1] and above 100 µM in series [2]. The Ratio IC50 in series [3] was above 5.39.

For `CCOC(=O)C1=C(C(C)C)NC(=S)N[C@H]1/C=C/c1ccccc1`, the IC50 in series [1] was above 50 µM.

Turning to `COC(=O)C1=C(C(C)C)NC(=S)N[C@H]1/C=C/c1ccc(Br)cc1`, the IC50 was 6.28 µM in series [1] and above 100 µM in [2]. For the same molecule, in series [3], the Ratio IC50 was above 15.9.

Regarding `CCOC(=O)C1=C(C(C)C)NC(=S)N[C@H]1/C=C/c1ccc(C)cc1`, the IC50 is 7.49 µM in series [1] and above 100 µM in [2]. Moreover, the Ratio IC50 in [3] is above 13.3.

These data come from ChEMBL document CHEMBL4433240, “Identification and characterization of potent and selective inhibitors targeting protein tyrosine phosphatase 1B (PTP1B)” (Bioorg Med Chem Lett, 2019).
